The assay deals with hepatocellular carcinoma cell line Hub-7. The assay is described as follows: Cell proliferation assay (CELL-TITER GLO cell viability). It is filed as cell-based. The note with it: 24 h, Hub-7 cells, 24 h incubation, read-out: Inhibition of Cell Proliferation EC50. The procedure: The activity of a test compound was determined in a cell proliferation assay using the hepatocellular carcinoma cell line […]. Cells (4,000 cells per well) were seeded in a 96-well tissue culture plate. After incubated overnight, a test compound was added at predetermined concentrations, starting with 10 μM and followed by 3-fold serial dilution. After the cells were incubated for 24 h, cell viability was determined using a CELL-TITER GLO® assay. The CELL-TITER GLO® reagent (50 μL) was added to each well and the luminescence was measured by a multimode microplate reader after a brief period of shaking. EC50 values were determined for the test compound. The results are summarized in Table 1, wherein A represents a value no greater than 100 nM, B represents a value greater than 100 nM but no greater than 500 nM, C represents a value greater than 500 nM but no greater than 2 μM, D represents a value greater than 2 μM but no greater than 10 μM; and E represents a value greater than 10 μM.

On to `C#CC(=O)N(c1cccc(N)c1)C(C(=O)NCc1ccccc1)c1ccc(N)cc1` (stereo not shown) [A70, N-(3-Aminophenyl)-N-(1-(4-aminophenyl)-2-(benzylamino)-2-oxoethyl)-propiolamide], for which the EC50 is 500 to 2000 nM.

As for `C#CC(=O)N(c1cccc(Cl)c1)C1(C(=O)NCC(=O)N2CCCC(C(=O)OC)C2)CCOCC1` (stereo not shown) [A184, Methyl 1-(2-(4-(N-(3-chlorophenyl)propiolamido)tetrahydro-2H-pyran-4-carboxamido)acetyl)piperidine-3-carboxylate], the EC50 was 100 to 500 nM.

`C#CC(=O)N(c1cccc(F)c1)C(C(=O)NCc1ccccc1)c1ccc(N)cc1` (stereo not shown) [A59, N-(1-(4-Aminophenyl)-2-(benzylamino)-2-oxoethyl)-N-(3-fluorophenyl)-propiolamide]: the EC50 lay within 100 to 500 nM.

`C#CC(=O)N(c1cccc(Cl)c1)C1(C(=O)NCC(=O)NCCO)CCOCC1` [A186, 4-(N-(3-Chlorophenyl)propiolamido)-N-(2-((2-hydroxyethyl)amino)-2-oxoethyl)-tetrahydro-2H-pyran-4-carboxamide]: the EC50 was 2000 to 10000 nM.

With `C#CC(=O)N(c1cccc(Cl)c1)C1(C(=O)NCC(=O)NCc2ccccc2C#N)CCOCC1` [A189, 4-(N-(3-Chlorophenyl)propiolamido)-N-(2-((2-cyanobenzyl)amino)-2-oxoethyl)-tetrahydro-2H-pyran-4-carboxamide], the EC50 lay in the range of 100 to 500 nM.

As for `C#CC(=O)N(c1cccc(Cl)c1)[C@]1(C(=O)NCc2ccccc2)CC[C@H](O)CC1` [A110, (1S,4S)—N-Benzyl-1-(N-(3-chlorophenyl)propiolamido)-4-hydroxycyclohexane-carboxamide], the EC50 was 100 to 500 nM.

For `COc1ccc(N(C(=O)CCl)C2(C(=O)NCc3ccccc3)CCOCC2)cc1Cl` [C25, N-Benzyl-4-(2-chloro-N-(3-chloro-4-methoxyphenyl)acetamido)tetrahydro-2H-pyran-4-carboxamide], the EC50 is 100 to 500 nM.

For `C#CC(=O)N(c1ccc(N(C)C)cc1)C1(C(=O)NCc2ccccc2)CCOCC1` [A140, N-Benzyl-4-(N-(4-(dimethylamino)phenyl)propiolamido)tetrahydro-2H-pyran-4-carboxamide], the EC50 fell in the range of 100 to 500 nM.

With `C#CC(=O)N(c1cccc(Cl)c1)C(C(=O)NC(C)(C)C)c1cccc(N)c1` (stereo not shown) [A20, N-(1-(3-aminophenyl)-2-(tert-butylamino)-2-oxoethyl)-N-(3-chlorophenyl)propiolamide], the EC50 was in the range of 100 to 500 nM.

For `COc1cccc(N(C(=O)CCl)C(C(=O)NCCc2ccccc2)c2ccc([N+](=O)[O-])cc2)c1` (stereo not shown) [C10, 2-Chloro-N-(3-methoxyphenyl)-N-(1-(4-nitrophenyl)-2-oxo-2-(phenethylamino)-ethyl)acetamide], the EC50 lay within 100 to 500 nM.

`C#CC(=O)N(c1ccc2scnc2c1)C1(C(=O)NCc2ccccc2)CCOCC1` [A155, 4-(N-(Benzo[d]thiazol-5-yl)propiolamido)-N-benzyltetrahydro-2H-pyran-4-carboxamide]: the EC50 fell in the range of 100 to 500 nM.

For `Cn1ncc2cc(N(C(=O)C(F)F)C3(C(=O)NCc4ccccc4)CCOCC3)ccc21` [D1, N-Benzyl-4-(2,2-difluoro-N-(1-methyl-1H-indazol-5-yl)acetamido)tetrahydro-2H-pyran-4-carboxamide], the EC50 was greater than 10000 nM.

With `C#CC(=O)N(c1ccc(OC)c(Cl)c1)C(C(=O)NC(C)(C)C)c1cccc(N)c1` (stereo not shown) [A21, N-(1-(3-Aminophenyl)-2-(tert-butylamino)-2-oxoethyl)-N-(3-chloro-4-methoxyphenyl)propiolamide], the EC50 lay in the range of 100 to 500 nM.

In the case of `C#CC(=O)N(c1ccc(S(N)(=O)=O)cc1)C(C(=O)NCc1ccccc1)c1cccc(N)c1` (stereo not shown) [A50, N-(1-(3-Aminophenyl)-2-(benzylamino)-2-oxoethyl)-N-(4-sulfamoylphenyl)-propiolamide], the EC50 is greater than 10000 nM.

For the compound `Cn1ncc2cc(N(C(=O)CCBr)C3(C(=O)NCc4ccccc4)CCOCC3)ccc21` [D6, N-Benzyl-4-(3-bromo-N-(1-methyl-1H-indazol-5-yl)propanamido)tetrahydro-2H-pyran-4-carboxamide], the EC50 was greater than 10000 nM.

As for `C#CC(=O)N(c1cccc(Cl)c1)C(C(=O)NCc1ccccc1)c1ccc(N)cc1` (stereo not shown) [A32, N-(1-(4-Aminophenyl)-2-(benzylamino)-2-oxoethyl)-N-(3-chlorophenyl)-propiolamide], the EC50 was no more than 100 nM.

In the case of `C#CC(=O)N(c1ccc(S(N)(=O)=O)cc1)C(C(=O)NC(C)(C)C)c1cccc(N)c1` (stereo not shown) [A25, N-(1-(3-Aminophenyl)-2-(tert-butylamino)-2-oxoethyl)-N-(4-sulfamoylphenyl)-propiolamide], the EC50 is greater than 10000 nM.

As for `C[Si](C)(C)C#CC(=O)N(c1cccc(Cl)c1)C1(C(=O)NCc2cccc(Cl)c2)CCOCC1` [A195, N-(3-Chlorobenzyl)-4-(N-(3-chlorophenyl)-3-(trimethylsilyl)propiolamido)-tetrahydro-2H-pyran-4-carboxamide], the EC50 is no more than 100 nM.

Turning to `C#CC(=O)N(c1ccc(C#N)cc1)C(C(=O)NCc1ccccc1)c1ccc(N)cc1` (stereo not shown) [A66, N-(1-(4-Aminophenyl)-2-(benzylamino)-2-oxoethyl)-N-(4-cyanophenyl)-propiolamide], the EC50 was no more than 100 nM.

`Cn1ncc2cc(N(C(=O)CCl)C3(C(=O)NCc4ccccc4)CCOCC3)ccc21` [C21, N-Benzyl-4-(2-chloro-N-(1-methyl-1H-indazol-5-yl)acetamido)tetrahydro-2H-pyran-4-carboxamide]: the EC50 lay in the range of 500 to 2000 nM.

With `Nc1ccc(N(C(=O)CCl)C(C(=O)NCCc2ccccc2)c2cccs2)cc1` (stereo not shown) [C2, N-(4-Aminophenyl)-2-chloro-N-(2-oxo-2-(phenethylamino)-1-(thiophen-2-yl)-ethyl)acetamide], the EC50 lay within 2000 to 10000 nM.

Turning to `C#CC(=O)N(c1ccc(OC)cc1OC)C(C(=O)NCC(=O)OCC)c1cccs1` (stereo not shown) [A190, Ethyl 2-(2-(N-(2,4-dimethoxyphenyl)propiolamido)-2-(thiophen-2-yl)acetamido)-acetate], the EC50 lay within 500 to 2000 nM.

In the case of `COc1ccc(N(C(=O)CCl)C(C)C(=O)NCCc2ccccc2)cc1Cl` (stereo not shown) [C14], the EC50 is 500 to 2000 nM.

On to `C#CC(=O)N(c1ccc(OC)cc1)C(C(=O)NCc1ccccc1)c1ccc(N)cc1` (stereo not shown) [A60, N-(1-(4-Aminophenyl)-2-(benzylamino)-2-oxoethyl)-N-(4-methoxyphenyl)-propiolamide], for which the EC50 is no more than 100 nM.

For the compound `C#CC(=O)N(c1cccc(Cl)c1)C1(C(=O)NCC(=O)NCc2ccccc2O)CCOCC1` [A185, 4-(N-(3-Chlorophenyl)propiolamido)-N-(2-((2-hydroxybenzyl)amino)-2-oxoethyl)tetrahydro-2H-pyran-4-carboxamide], the EC50 lay in the range of 100 to 500 nM.

Turning to `C#CC(=O)N(c1cccc(Cl)c1F)C(C(=O)NCc1ccccc1)c1ccccc1` (stereo not shown) [A81, N-(2-(Benzylamino)-2-oxo-1-phenylethyl)-N-(3-chloro-2-fluorophenyl)-propiolamide], the EC50 was 100 to 500 nM.

Consider `C#CC(=O)N(c1cccc(Cl)c1)C1(C(=O)NCc2ccccc2)CCCCC1` [A101, N-Benzyl-1-(N-(3-chlorophenyl)propiolamido)cyclohexanecarboxamide], for which the EC50 is no more than 100 nM.

Take `C#CC(=O)N(c1ccc(O)cc1)C(C(=O)NC(C)(C)C)c1ccc(N)cc1` (stereo not shown) [A12, N-(1-(4-Aminophenyl)-2-(tert-butylamino)-2-oxoethyl)-N-(4-hydroxyphenyl)-propiolamide]: the EC50 is greater than 10000 nM.

Turning to `C#CC(=O)N(c1ccc(C#N)cc1)C(C(=O)NCc1ccccc1)c1cccc(N)c1` (stereo not shown) [A48, N-(1-(3-Aminophenyl)-2-(benzylamino)-2-oxoethyl)-N-(4-cyanophenyl)-propiolamide], the EC50 is no more than 100 nM.

As for `C#CC(=O)N(c1cccc(S(C)(=O)=O)c1)C(C(=O)NCc1ccccc1)c1ccccc1` (stereo not shown) [A92, N-(2-(Benzylamino)-2-oxo-1-phenylethyl)-N-(3-(methylsulfonyl)-phenyl)-propiolamide], the EC50 was 100 to 500 nM.

On to `C#CC(=O)N(c1cccc(Cl)c1F)C(C(=O)NCc1ccccc1)c1cccc(N)c1` (stereo not shown) [A41, N-(1-(3-Aminophenyl)-2-(benzylamino)-2-oxoethyl)-N-(3-chloro-2-fluoro-phenyl)propiolamide], for which the EC50 is no more than 100 nM.

On to `C#CC(=O)N(CCc1ccccc1)C1(C(=O)NCc2ccccc2)CCCC(C(=O)O)C1` (stereo not shown) [A169, 3-(Benzylcarbamoyl)-3-(N-phenethylpropiolamido)cyclohexane-1-carboxylic acid], for which the EC50 is greater than 10000 nM.

As to `C#CC(=O)N(c1cccc(C(=O)OC)c1)C(C(=O)NCc1ccccc1)c1cccc(N)c1` (stereo not shown) [A122], the EC50 was no more than 100 nM.

In the case of `C#CC(=O)N(c1ccc(Cl)cc1)C(C(=O)NCc1ccccc1)c1ccc(N)cc1` (stereo not shown) [A52, N-(2-(benzylamino)-1-(4-aminophenyl)-2-oxoethyl)-N-(4-chlorophenyl)propiolamide], the EC50 was no more than 100 nM.

Take `C#CC(=O)N(c1ccc2c(c1)OC(F)(F)O2)C(C(=O)NCc1ccccc1)c1ccccc1` (stereo not shown) [A99, N-(2-(Benzylamino)-2-oxo-1-phenylethyl)-N-(2,2-difluorobenzo[d][1,3]dioxol-5-yl)propiolamide]: the EC50 is no more than 100 nM.

For `O=C(CCl)N(c1cccc2nsnc12)C1(C(=O)NCc2ccccc2)CCOCC1` [C28, 4-(N-(Benzo[c][1,2,5]thiadiazol-4-yl)-2-chloroacetamido)-N-benzyltetrahydro-2H-pyran-4-carboxamide], the EC50 lay in the range of 100 to 500 nM.

On to `C#CC(=O)N(c1ccc2ncn(C)c2c1)C1(C(=O)NCc2ccccc2)CCOCC1` [A154, N-Benzyl-4-(N-(1-methyl-1H-benzo[d]imidazol-6-yl)propiolamido)tetrahydro-2H-pyran-4-carboxamide], for which the EC50 was 500 to 2000 nM.

These data come from patent US12516016B2, “GPX4 inhibitors, pharmaceutical compositions thereof, and their use for treating GPX4-mediated diseases” (EUBULUS BIOTHERAPEUTICS (HONG KONG) LIMITED, priority 2020, dated 2026).
